Test results from patent publication US9399626B2, “2-thiopyrimidinones” (Pfizer Inc., priority 2011, dated 2016).
Structures can show the parent of a compound that is named as a salt.

What follows are compounds tested against T1, MPO (purified from human polynuclear leukocytes) (Homo sapiens, UniProt P05164) (assay: MPO Amplex Red Activity Assay). Details: Table 1, 2 μM H2O2, pH 7.4.
T1 construct: purified from human polynuclear leukocytes; purchased Calbiochem/EMD Biosciences; host or cells: human polynuclear leukocytes (natural source)
T1 sequence (P05164 279-745 limits assumed): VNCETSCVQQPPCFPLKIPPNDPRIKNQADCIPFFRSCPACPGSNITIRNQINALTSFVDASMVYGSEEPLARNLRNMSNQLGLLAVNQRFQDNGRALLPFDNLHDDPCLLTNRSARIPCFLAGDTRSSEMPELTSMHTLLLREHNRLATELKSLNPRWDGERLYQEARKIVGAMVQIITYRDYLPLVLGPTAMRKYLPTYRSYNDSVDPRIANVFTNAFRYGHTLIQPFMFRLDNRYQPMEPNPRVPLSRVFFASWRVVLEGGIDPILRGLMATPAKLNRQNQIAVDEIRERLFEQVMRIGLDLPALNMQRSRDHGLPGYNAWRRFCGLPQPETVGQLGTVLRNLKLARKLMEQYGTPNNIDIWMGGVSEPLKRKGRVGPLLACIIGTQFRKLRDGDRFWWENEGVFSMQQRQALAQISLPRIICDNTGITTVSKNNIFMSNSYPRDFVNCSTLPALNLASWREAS
T1 sequence (P05164 165-273 limits assumed): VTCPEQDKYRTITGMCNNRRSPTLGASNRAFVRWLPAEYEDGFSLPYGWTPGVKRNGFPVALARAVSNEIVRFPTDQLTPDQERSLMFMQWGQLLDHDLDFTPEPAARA
Type: biochemical
Procedure: MPO Amplex Red Activity Assay.
MPO peroxidase activity was measured by monitoring the formation of resorufin generated from the oxidation of Amplex Red (10-Acetyl-3,7-dihydroxyphenoxazine) (Invitrogen, Carlsbad, Calif.) by MPO (Gomes, Fernandes et al. 2005). Assay mixtures (100 μL total volume) contained 50 mM NaPi pH 7.4, 150 mM NaCl, 1 mM DTPA (diethylenetriaminepentaacetic acid), 2% DMSO, 2 μM H2O2, 30 μM Amplex Red and the reaction was initiated by the addition of […] (purified from human polynuclear leukocytes and purchased from Calbiochem/EMD Biosciences, Gibbstown, N.J.). All assays were performed in 96-well, half-area, black, nonbinding surface, polystyrene plates (Corning) and the production of resorufin (excitation 530 nm, emission 580 nm) was monitored every 20 sec on a Spectramax M2 Microplate Spectrophotometer (Molecular Devices, Palo Alto, Calif.) equipped with Softmax Pro software (Molecular Devices, Palo Alto, Calif.). Reactions to determine the background reaction rate consisted of all assay components and 4 μL of 500 unit/mL bovine catalase (Sigma) in 50 mM KPi pH 7.0. The background rate was subtracted from each reaction progress curve. All data was analyzed using non-linear regression analysis in Microsoft Excel and Kaleidagraph (Synergy Software).
To determine inhibitor potency (kinact/KI) against MPO, the first 600 sec of the reaction progress curves were fit to equation 1, where Vo is the initial rate in RFU/sec and t is time in seconds, to obtain the first order rate constant for enzyme inactivation (kobs) at each inhibitor concentration.
[formula] Equation 1 is a variation of the standard equation for slow binding inhibition where the steady state velocity (Vs) is set to zero. Each kobs value was corrected for auto-inactivation of the enzyme by subtracting the kobs value for the uninhibited reaction. The corrected kobs values were then plotted versus inhibitor concentration ([I]) and fit to equation 2
[formula] where kinact is the maximal rate of inactivation and KI is the inhibitor concentration that yields half the rate of maximal inactivation (Copeland 2005).
Table 1 and (1A) below provides the myeloperoxidase inhibitory activity for the Examples below in accordance with the above-described assay.
With `NC(=O)Cn1c(-c2cc3ccccc3s2)cc(=O)[nH]c1=S` [Example 69, 2-[6-(1-benzothien-2-yl)-4-oxo-2-thioxo-3,4-dihydropyrimidin-1(2H)-yl]acetamide] the “MPO kinact/Ki” value was 4250 1/s per M.
In the case of `COCCn1c(-c2ccc(C#N)cc2OC)cc(=O)[nH]c1=S` [Example 70, 3-methoxy-4-[3-(2-methoxyethyl)-6-oxo-2-thioxo-1,2,3,6-tetrahydro-pyrimidin-4-yl]benzonitrile], the “MPO kinact/Ki” value is reported as 1590 1/s per M.
For `NCCCn1c(-c2cc3ccccc3s2)cc(=O)[nH]c1=S` [Example 71, 1-(3-aminopropyl)-6-(1-benzothien-2-yl)-2-thioxo-2,3-dihydropyrimidin-4(1H)-one hydrochloride], the “MPO kinact/Ki” value was 3570 1/s per M.
With `NCCCn1c(-c2cccc3ncsc23)cc(=O)[nH]c1=S` [Example 72, 1-(3-aminopropyl)-6-(1,3-benzothiazol-7-yl)-2-thioxo-2,3-dihydropyrimidin-4(1H)-one trifluoroacetate] the “MPO kinact/Ki” value was 3580 1/s per M.
With `COCCn1c(-c2cccc3ccsc23)cc(=O)[nH]c1=S` [Example 73, 6-(1-benzothien-7-yl)-1-(2-methoxyethyl)-2-thioxo-2,3-dihydropyrimidin-4(1H)-one] the “MPO kinact/Ki” value was 9870 1/s per M.
With `COCCn1c(-c2cccc3sccc23)cc(=O)[nH]c1=S` [Example 74, 6-(1-benzothien-4-yl)-1-(2-methoxyethyl)-2-thioxo-2,3-dihydropyrimidin-4(1H)-one] the “MPO kinact/Ki” value was 14400 1/s per M.
In the case of `COCCn1c(-c2nc3ccccc3s2)cc(=O)[nH]c1=S` [Example 75, 6-(1,3-benzothiazol-2-yl)-1-(2-methoxyethyl)-2-thioxo-2,3-dihydropyrimidin-4(1H)-one], the “MPO kinact/Ki” value is reported as 2040 1/s per M.
In the case of `NCCCn1c(-c2ccc3c(c2)OCCO3)cc(=O)[nH]c1=S` [Example 76, 1-(3-aminopropyl)-6-(2,3-dihydro-1,4-benzodioxin-6-yl)-2-thioxo-2,3-dihydropyrimidin-4(1H)-one hydrochloride], the “MPO kinact/Ki” value is reported as 4190 1/s per M.
`COc1ccccc1-c1cc(=O)[nH]c(=S)n1CCN=C(N)N` [Example 77, 2-{2-[6-(2-methoxyphenyl)-4-oxo-2-thioxo-3,4-dihydropyrimidin-1(2H)-yl]ethyl}guanidine hydrochloride] was tested, and the “MPO kinact/Ki” value was 6660 1/s per M.
In the case of `COCCn1c(-c2cccc3ncsc23)cc(=O)[nH]c1=S` [Example 78, 6-(1,3-benzothiazol-7-yl)-1-(2-methoxyethyl)-2-thioxo-2,3-dihydropyrimidin-4(1H)-one], the “MPO kinact/Ki” value is reported as 9730 1/s per M.
In the case of `Cl.NCCCOc1ccccc1-c1cc(=O)[nH]c(=S)n1CCN` [Example 79, 1-(2-aminoethyl)-6-[2-(3-aminopropoxy)phenyl]-2-thioxo-2,3-dihydropyrimidin-4(1H)-one hydrochloride], the “MPO kinact/Ki” value is reported as 1580 1/s per M.
In the case of `COCCn1c(-c2cccc3c2OCCO3)cc(=O)[nH]c1=S` [Example 80, 6-(2,3-dihydro-1,4-benzodioxin-5-yl)-1-(2-methoxyethyl)-2-thioxo-2,3-dihydropyrimidin-4(1H)-one], the “MPO kinact/Ki” value is reported as 4130 1/s per M.
For `COc1cc(OC)c(-c2cc(=O)[nH]c(=S)n2CCN)cc1C` [Example 81, 1-(2-aminoethyl)-6-(2,4-dimethoxy-5-methylphenyl)-2-thioxo-2,3-dihydropyrimidin-4(1H)-one hydrochloride], the “MPO kinact/Ki” value was 24300 1/s per M.
With `COc1ccc(-c2cc(=O)[nH]c(=S)n2CCCN)cc1OC` [Example 82, 1-(3-aminopropyl)-6-(3,4-dimethoxyphenyl)-2-thioxo-2,3-dihydropyrimidin-4(1H)-one hydrochloride] the “MPO kinact/Ki” value was 3390 1/s per M.
In the case of `COc1ccc(-c2cc(=O)[nH]c(=S)n2CC(N)=O)cc1OC` [Example 83, 2-[6-(3,4-dimethoxyphenyl)-4-oxo-2-thioxo-3,4-dihydropyrimidin-1(2H)-yl]acetamide], the “MPO kinact/Ki” value is reported as 3510 1/s per M.
`COc1cc(-c2cc(=O)[nH]c(=S)n2CCN)c(OC)cc1C` [Example 84, 1-(2-aminoethyl)-6-(2,5-dimethoxy-4-methylphenyl)-2-thioxo-2,3-dihydropyrimidin-4(1H)-one hydrochloride] was tested, and the “MPO kinact/Ki” value was 6630 1/s per M.
With `COc1cc(OC)cc(-c2cc(=O)[nH]c(=S)n2CCCN)c1` [Example 85, 1-(3-aminopropyl)-6-(3,5-dimethoxyphenyl)-2-thioxo-2,3-dihydropyrimidin-4(1H)-one hydrochloride] the “MPO kinact/Ki” value was 10700 1/s per M.
`COc1cc(OC)cc(-c2cc(=O)[nH]c(=S)n2CC(N)=O)c1` [Example 86, 2-[6-(3,5-dimethoxyphenyl)-4-oxo-2-thioxo-3,4-dihydropyrimidin-1(2H)-yl]acetamide] was tested, and the “MPO kinact/Ki” value was 3960 1/s per M.
In the case of `COc1ccc(OC)c(-c2cc(=O)[nH]c(=S)n2CCCN)c1` [Example 87, 1-(3-aminopropyl)-6-(2,5-dimethoxyphenyl)-2-thioxo-2,3-dihydropyrimidin-4(1H)-one hydrochloride], the “MPO kinact/Ki” value is reported as 15400 1/s per M.
For `NCCCn1c(-c2ccccc2OCCO)cc(=O)[nH]c1=S` [Example 88, 1-(3-aminopropyl)-6-[2-(2-hydroxyethoxy)phenyl]-2-thioxo-2,3-dihydropyrimidin-4(1H)-one hydrochloride], the “MPO kinact/Ki” value was 898 1/s per M.
`COc1ccc(-c2cc(=O)[nH]c(=S)n2CC(=O)O)c(OC)c1` [Example 89, [6-(2,4-dimethoxyphenyl)-4-oxo-2-thioxo-3,4-dihydropyrimidin-1(2H)-yl]acetic acid] was tested, and the “MPO kinact/Ki” value was 276 1/s per M.
`COc1cc(OC)c(-c2cc(=O)[nH]c(=S)n2CCN)cc1F` [Example 90, 1-(2-aminoethyl)-6-(5-fluoro-2,4-dimethoxyphenyl)-2-thioxo-2,3-dihydropyrimidin-4(1H)-one hydrochloride] was tested, and the “MPO kinact/Ki” value was 11600 1/s per M.
With `COc1ccc(-c2cc(=O)[nH]c(=S)n2CCCN)c(Cl)c1` [Example 91, 1-(3-aminopropyl)-6-(2-chloro-4-methoxyphenyl)-2-thioxo-2,3-dihydropyrimidin-4(1H)-one hydrochloride] the “MPO kinact/Ki” value was 9360 1/s per M.
With `COc1ccc(Cl)cc1-c1cc(=O)[nH]c(=S)n1CCCN` [Example 92, 1-(3-aminopropyl)-6-(5-chloro-2-methoxyphenyl)-2-thioxo-2,3-dihydropyrimidin-4(1H)-one hydrochloride] the “MPO kinact/Ki” value was 22100 1/s per M.
With `COc1ncc(Cl)cc1-c1cc(=O)[nH]c(=S)n1CCCN` [Example 93, 1-(3-aminopropyl)-6-(5-chloro-2-methoxypyridin-3-yl)-2-thioxo-2,3-dihydropyrimidin-4(1H)-one hydrochloride] the “MPO kinact/Ki” value was 5120 1/s per M.
In the case of `COc1ccc(Cl)cc1-c1cc(=O)[nH]c(=S)n1CCCO` [Example 94, 6-(5-chloro-2-methoxyphenyl)-1-(3-hydroxypropyl)-2-thioxo-2,3-dihydropyrimidin-4(1H)-one], the “MPO kinact/Ki” value is reported as 6930 1/s per M.
`COc1cc2ccccc2cc1-c1cc(=O)[nH]c(=S)n1CCN` [Example 95, 1-(2-aminoethyl)-6-(3-methoxy-2-naphthyl)-2-thioxo-2,3-dihydropyrimidin-4(1H)-one hydrochloride] was tested, and the “MPO kinact/Ki” value was 15400 1/s per M.
For `COCCn1c(-c2cc(Cl)cnc2OC)cc(=O)[nH]c1=S` [Example 96, 6-(5-chloro-2-methoxypyridin-3-yl)-1-(2-methoxyethyl)-2-thioxo-2,3-dihydropyrimidin-4(1H)-one], the “MPO kinact/Ki” value was 2200 1/s per M.
